In patent US9029388B2, “Condensed heterocyclic compound” (Takeda Pharmaceutical Company Limited, priority 2011, dated 2015):

Assays:
[1] = molecular target: T1, human PDE10A enzyme (Homo sapiens, UniProt Q9Y233); experiment: PDE10A enzyme activity inhibition test (Scintillation Proximity Assay, [3H]cGMP substrate); format: biochemical; conditions: control without compound = 0%, without compound and enzyme = 100%; for inhibition at 0.1 µM: compound 0.1 μM, read-out: Inhibitory rate (%) (0.1 μM); for inhibition at 10 µM: compound 10 μM, read-out: Inhibitory rate (%) (10 μM)
T1 construct: Human PDE10A full-length gene was transfected into Sf9 or COS-7 cells; His-tag; made in house; host or cells: Sf9 or COS-7 cells
T1 sequence (Q9Y233 267-1055): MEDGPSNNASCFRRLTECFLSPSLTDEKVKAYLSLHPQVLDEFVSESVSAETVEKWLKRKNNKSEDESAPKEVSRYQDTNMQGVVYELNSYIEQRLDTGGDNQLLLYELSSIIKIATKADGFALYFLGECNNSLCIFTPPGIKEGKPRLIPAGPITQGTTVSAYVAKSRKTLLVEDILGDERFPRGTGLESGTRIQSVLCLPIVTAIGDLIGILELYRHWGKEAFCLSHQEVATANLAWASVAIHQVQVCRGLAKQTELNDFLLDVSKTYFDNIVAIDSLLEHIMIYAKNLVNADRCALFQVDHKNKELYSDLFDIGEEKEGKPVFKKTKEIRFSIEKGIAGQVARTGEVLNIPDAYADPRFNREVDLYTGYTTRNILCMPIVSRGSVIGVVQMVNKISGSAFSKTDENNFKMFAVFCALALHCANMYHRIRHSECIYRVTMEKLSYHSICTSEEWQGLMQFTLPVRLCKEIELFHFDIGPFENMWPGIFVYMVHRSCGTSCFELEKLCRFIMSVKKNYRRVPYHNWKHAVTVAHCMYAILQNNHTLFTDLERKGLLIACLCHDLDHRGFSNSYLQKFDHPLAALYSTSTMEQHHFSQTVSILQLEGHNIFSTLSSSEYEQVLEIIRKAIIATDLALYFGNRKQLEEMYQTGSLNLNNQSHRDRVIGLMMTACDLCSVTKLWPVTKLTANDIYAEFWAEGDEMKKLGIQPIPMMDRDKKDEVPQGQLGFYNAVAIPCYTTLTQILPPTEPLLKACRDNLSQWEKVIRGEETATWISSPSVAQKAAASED
Protocol: Human PDE10A full-length gene was transfected into Sf9 or COS-7 cells. The cells were disrupted and centrifuged, and human PDE10A enzyme was obtained from the residue. The enzyme extracted from Sf9 cells was partially purified using His-tag affinity column. The enzyme was stored at −70° C. until use.
The PDE 10A enzyme activity was measured using an Scintillation Proximity Assay (SPA, GE Healthcare). To measure the inhibitory activity of the test compound, 10 μL of serially diluted test compound was reacted with 20 μL of PDE 10A enzyme in an assay buffer (50 mM HEPES-NaOH, 8.3 mM MgCl2, 1.7 mM EGTA, 0.1% BSA (pH 7.4)) for 30 min at room temperature. The final concentration of DMSO in the reaction mixture was 1%.
The compounds were evaluated in duplicate in 96-well half-area plates (Corning). To start the reaction, 10 μL of substrate [3H] cGMP (25 or 50 nM; GE Healthcare and PerkinElmer, respectively) was added thereto to the total volume of 40 μL. After 60 min of reaction at room temperature, yttrium SPA beads containing zinc sulphate were added (6 mg/mL, 20 μL) to terminate the reaction. After standing still for 1 hr, the measurement was performed using a scintillation counter (PerkinElmer) and the inhibition rate was calculated. As for the inhibitory rate, the value without addition of the compound (control) was 0%, and that without addition of the compound and enzyme was 100%.

[2] = tested on: hyperlocomotion induced by MK-801; experiment: Suppressive action on hyperlocomotion induced by MK-801; format: in vivo, rat; conditions: male SD rats; 1 mg/kg p.o., 60 min before MK-801 (0.3 mg/kg, s.c.); vs vehicle, Student's t-test P<0.05; FIG. 1
Excerpt: Male SD rats were purchased from Charles River Laboratories Japan, Inc. (Kanagawa, Japan), and used for the experiment at the age of 8 weeks. After arrival at the vivarium, the animals were acclimated for at least 1 week. The animals were reared under a 12:12 hr light/dark cycle in a temperature- and humidity-controlled laboratory and allowed to freely take food and water.
Example 14 was suspended in 0.5% (w/v) aqueous methylcellulose solution and orally administered (p.o.). (+)-MK-801 hydrogen maleate (MK-801, Sigma-Aldrich, St Louis, State of Missouri) was dissolved in saline, and subcutaneously administered (s.c.). All drugs were dosed in a volume of 2 mL/kg body weight for rats.
Hyperlocomotion induced by psychostimulants (e.g., amphetamine, cocaine, methamphetamine, MK-801 and phencyclidine) in rodents is widely used as an animal model of psychosis (Psychopharmacology 1999, vol. 145: 237-250). Using rats, a suppressive action of a compound (Example 14) on the hyperlocomotion induced by MK-801 was tested. Until the start of the test, male SD rats (8-week-old) were acclimated in a locomotor chamber with an infrared sensor set on the upper side (Muromachi Kikai Co., Ltd., Tokyo, Japan). […] Hyperlocomotion was measured every 1 min, and the cumulative count for 120 min from the administration of MK-801 was calculated for each treatment group. […]

inhibition at 0.1 µM [1] [%] | inhibition at 10 µM [1] [%] | melting point [°C] | Structure (SMILES) | suppression of hyperlocomotion induced by MK-801 (cumulative count 0-120 min) [2]
63 | 98 | – | Cc1cn2cccc(-c3ccc(Oc4nc5ccccc5[nH]4)cc3)c2n1 [Example 1, 2-[4-(2-Methylimidazo[1,2-a]pyridin-8-yl)phenoxy]-1H-benzimidazole] | –
62 | 98 | – | c1ccc2[nH]c(Oc3ccc(-c4cccn5ccnc45)cc3)nc2c1 [Example 2, 2-[4-(Imidazo[1,2-a]pyridin-8-yl)phenoxy]-1H-benzimidazole] | –
91 | 102 | – | CCn1nc2cccnc2c1-c1ccc(Oc2nc3ccccc3[nH]2)cc1 [Example 3, 3-[4-(1H-benzimidazol-2-yloxy)phenyl]-2-ethyl-2H-pyrazolo[4,3-b]pyridine] | –
2 | 51 | – | c1ccc2[nH]c(Oc3ccc(C4CCCn5ccnc54)cc3)nc2c1 (centres unmarked) [Example 5, 2-[4-(5,6,7,8-Tetrahydroimidazo[1,2-a]pyridin-8-yl)phenoxy]-1H-benzimidazole] | –
99 | – | – | COc1nn(-c2ccc(Oc3nc4ccccc4[nH]3)cc2)c2ncccc12 [Example 6, 1-[4-(1H-benzimidazol-2-yloxy)phenyl]-3-methoxy-1H-pyrazolo[3,4-b]pyridine] | –
59 | – | – | Cn1c(=O)c2cccnc2n1-c1ccc(Oc2nc3ccccc3[nH]2)cc1 [Example 7, 1-[4-(1H-benzimidazol-2-yloxy)phenyl]-2-methyl-1,2-dihydro-3H-pyrazolo[3,4-b]pyridin-3-one] | –

The remaining lines, values behind:

Structure (SMILES) | inhibition at 0.1 µM [1] [%] | inhibition at 10 µM [1] [%] | melting point [°C] | suppression of hyperlocomotion induced by MK-801 (cumulative count 0-120 min) [2]
CCn1nc2cccnc2c1-c1ccc(Oc2nc3ccccc3n2C)cc1 [Example 4, 2-Ethyl-3-{4-[(1-methyl-1H-benzimidazol-2-yl)oxy]phenyl}-2H-pyrazolo[4,3-b]pyridine] | 93 | 102 | – | –
CCc1nn(-c2ccc(Oc3nc4ccccc4n3C)cc2)c2ncccc12 [Example 8, 3-Ethyl-1-{4-[(1-methyl-1H-benzimidazol-2-yl)oxy]phenyl}-1H-pyrazolo[3,4-b]pyridine] | 93 | 104 | – | –
Cn1c(Oc2ccc(-n3c4ncccc4n4ccnc34)cc2)nc2ccccc21 [Example 9, 9-{4-[(1-Methyl-1H-benzimidazol-2-yl)oxy]phenyl}-9H-imidazo[1′,2′:1,2]imidazo[4,5-b]pyridine] | 93 | 96 | 232 to 234 | –
CC(=O)Cn1c(Oc2ccc(-n3c4ncccc4n4ccnc34)cc2)nc2ccccc21 [Example 10, 1-{2-[4-(9H-imidazo[1′,2′:1,2]imidazo[4,5-b]pyridin-9-yl)phenoxy]-1H-benzimidazol-1-yl}propan-2-one] | 104 | 109 | 189 to 192 | –
CC(C)(O)Cn1c(Oc2ccc(-n3c4ncccc4n4ccnc34)cc2)nc2ccccc21 [Example 11, 1-{2-[4-(9H-imidazo[1′,2′:1,2]imidazo[4,5-b]pyridin-9-yl)phenoxy]-1H-benzimidazol-1-yl}-2-methylpropan-2-ol] | 104 | 106 | 208 to 211 | –
CCc1nn(-c2ccc(Oc3nc4cccnc4n3C)cc2)c2ncccc12 [Example 12, 3-Ethyl-1-{4-[(3-methyl-3H-imidazo[4,5-b]pyridin-2-yl)oxy]phenyl}-1H-pyrazolo[3,4-b]pyridine] | 99 | 101 | – | –
Cn1c(Oc2ccc(-n3c4ncccc4n4ccnc34)cc2)nc2cccnc21 [Example 13, 9-{4-[(3-Methyl-3H-imidazo[4,5-b]pyridin-2-yl)oxy]phenyl}-9H-imidazo[1′,2′:1,2]imidazo[4,5-b]pyridine] | 97 | 106 | 228 to 231 | –
COCCn1c(Oc2ccc(-n3c4ncccc4n4ccnc34)cc2)nc2cccnc21 [Example 14, 9-(4-{[3-(2-Methoxyethyl)-3H-imidazo[4,5-b]pyridin-2-yl]oxy}phenyl)-9H-imidazo[1′,2′:1,2]imidazo[4,5-b]pyridine] | 96 | 105 | 178 to 182 | significantly suppressed hyperlocomotion induced by MK-801
Cc1ccnc2c1n1ccnc1n2-c1ccc(Oc2nc3cccnc3n2C)cc1 [Example 15, 5-Methyl-9-{4-[(3-methyl-3H-imidazo[4,5-b]pyridin-2-yl)oxy]phenyl}-9H-imidazo[1′,2′:1,2]imidazo[4,5-b]pyridine] | 97 | 95 | 236 to 239 | –
COCCn1c(Oc2ccc(-n3c4nccc(C)c4n4ccnc34)cc2)nc2cccnc21 [Example 16, 9-(4-{[3-(2-Methoxyethyl)-3H-imidazo[4,5-b]pyridin-2-yl]oxy}phenyl)-5-methyl-9H-imidazo[1′,2′:1,2]imidazo[4,5-b]pyridine] | 98 | 105 | 190 to 192 | –
